# Measured values taken from patent US10519134B2, “Pyrazole compounds and methods of making and using same” (Lundbeck La Jolla Research Center, Inc., priority 2015, dated 2019).
# What was measured:
# MAGL [1] = molecular target: T1, MAGL (Mus musculus, UniProt O35678); assay: In vitro competitive activity-based protein profiling (mouse), MAGL gel band; assay type: biochemical; settings: for IC50: mouse; for inhibition at 1 µM: read-out: MAGL % inh. 1 μM
# T1 construct: Proteomes (mouse brain membrane fraction or cell lysates); from tissue; host or cells: mouse brain membrane fraction (or cell lysates)
# T1 sequence (O35678 1-303): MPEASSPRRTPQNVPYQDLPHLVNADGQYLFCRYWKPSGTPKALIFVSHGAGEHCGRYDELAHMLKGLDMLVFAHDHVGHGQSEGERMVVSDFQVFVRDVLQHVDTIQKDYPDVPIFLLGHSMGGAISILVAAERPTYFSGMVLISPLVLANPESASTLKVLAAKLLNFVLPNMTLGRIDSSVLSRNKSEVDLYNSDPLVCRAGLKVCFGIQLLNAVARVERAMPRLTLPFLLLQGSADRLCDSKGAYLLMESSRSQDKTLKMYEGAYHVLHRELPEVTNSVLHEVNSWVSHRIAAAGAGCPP
# Summary of the method: (§1)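 Residual enzyme activity is taken from in-gel fluorescence after SDS-PAGE. Proteome from mouse brain membranes or cell lysates (total protein 1.0 mg/mL) sees inhibitor for 30 min, then FP-Rh or HT-01 probe (50 μM DMSO stock) for 30 min, both steps at 37 °C.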
# MAGL [2] = molecular target: T2, MAGL (Homo sapiens, UniProt Q99685); assay: In vitro competitive activity-based protein profiling (human), MAGL gel band; assay type: biochemical
# T2 construct: Proteomes (human prefrontal cortex or cell membrane fractions); from tissue; host or cells: human prefrontal cortex (or cell membrane fractions)
# T2 sequence (Q99685 1-303): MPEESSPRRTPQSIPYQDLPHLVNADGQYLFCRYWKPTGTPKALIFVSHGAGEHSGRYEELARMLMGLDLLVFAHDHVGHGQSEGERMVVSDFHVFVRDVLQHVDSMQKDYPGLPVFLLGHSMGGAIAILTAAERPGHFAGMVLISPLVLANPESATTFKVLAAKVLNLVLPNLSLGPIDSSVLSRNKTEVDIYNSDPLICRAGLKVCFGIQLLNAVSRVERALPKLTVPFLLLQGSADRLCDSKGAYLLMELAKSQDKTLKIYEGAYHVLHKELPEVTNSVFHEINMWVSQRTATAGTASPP
# Summary of the method: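 Human prefrontal cortex or cell membrane proteomes (1.0-2.0 mg/mL protein) preincubated with inhibitors 30 min at 37° C, then labelled with FP-Rh or JW912 probe 30 min at room temperature. Residual MAGL activity read as fluorescent gel-band intensity after SDS-PAGE.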
# MAGL [3] = molecular target: T1, MAGL; assay: Mouse brain proteomes from inhibitor treated mice (oral gavage, sacrificed 4 h after administration); assay type: in vivo; settings: read-out: MAGL % inh. 5 mg/kg
# Summary of the method: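 Wild-type C57Bl/6J mice got compound by oral gavage in polyethylene glycol vehicle. Brain proteomes were prepared 4 h after dosing and analyzed for serine hydrolase activity.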
# FAAH = molecular target: T3, FAAH (Mus musculus, UniProt O08914); assay: In vitro competitive activity-based protein profiling (mouse), FAAH gel band; assay type: biochemical; settings: for IC50: mouse; for inhibition at 1 µM: read-out: FAAH % inh. 1 μM
# T3 construct: Proteomes (mouse brain membrane fraction or cell lysates); from tissue; host or cells: mouse brain membrane fraction (or cell lysates)
# T3 sequence (O08914 1-579): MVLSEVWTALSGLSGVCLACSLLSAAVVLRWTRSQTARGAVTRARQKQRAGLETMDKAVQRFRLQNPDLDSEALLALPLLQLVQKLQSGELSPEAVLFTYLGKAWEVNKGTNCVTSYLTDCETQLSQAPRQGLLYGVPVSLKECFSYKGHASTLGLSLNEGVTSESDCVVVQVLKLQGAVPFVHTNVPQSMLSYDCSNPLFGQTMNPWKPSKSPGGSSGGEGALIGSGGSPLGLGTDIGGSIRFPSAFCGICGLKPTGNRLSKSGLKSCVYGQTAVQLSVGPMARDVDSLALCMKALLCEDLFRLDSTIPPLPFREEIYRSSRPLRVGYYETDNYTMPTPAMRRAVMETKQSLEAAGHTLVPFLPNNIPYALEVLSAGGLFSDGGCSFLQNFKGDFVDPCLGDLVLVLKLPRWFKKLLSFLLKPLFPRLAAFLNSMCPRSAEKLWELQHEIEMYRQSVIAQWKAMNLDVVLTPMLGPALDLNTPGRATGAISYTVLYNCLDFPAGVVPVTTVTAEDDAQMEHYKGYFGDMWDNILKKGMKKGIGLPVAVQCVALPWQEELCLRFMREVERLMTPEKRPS
# Summary of the method: as §1
SMILES,IC50 (MAGL [1]),inhibition at 1 µM (MAGL [1]),IC50 (MAGL [2]),inhibition at 5 mg/kg (MAGL [3]),IC50 (FAAH),inhibition at 1 µM (FAAH),"inhibition at 1 µM (MAGL [2]; at 1 μM, read-out: MAGL human % inh at 1 μM)"
"CC(=O)Nc1ccn(C(=O)N2CCN(Cc3ccc(C(F)(F)F)cc3N3CCC4(CCOCC4)C3)CC2)n1 [Example 45, N-(1-(4-(2-(8-oxa-2-azaspiro[4.5]decan-2-yl)-4-(trifluoromethyl)benzyl)piperazine-1-carbonyl)-1H-pyrazol-3-yl)acetamide]",≤ 100 nM,≥ 75%,100 to 1000 nM,0 to 25%,1000 to 10000 nM,0 to 25%,–
"CC(=O)Nc1ccn(C(=O)N2CCN(Cc3ccc(C(F)(F)F)cc3N3CCC(C(C)(C)O)CC3)CC2)n1 [Example 266, N-(1-(4-(2-(4-(2-hydroxypropan-2-yl)piperidin-1-yl)-4-(trifluoromethyl)benzyl)piperazine-1-carbonyl)-1H-pyrazol-3-yl)acetamide]",≤ 100 nM,≥ 75%,≤ 100 nM,–,1000 to 10000 nM,0 to 25%,–
"CC(=O)Nc1ccn(C(=O)N2CCN(Cc3ccc(C(F)(F)F)cc3N3CCN4CCC[C@H]4C3)CC2)n1 [Example 267, (S)-N-(1-(4-(2-(hexahydropyrrolo[1,2-a]pyrazin-2(1H)-yl)-4-(trifluoromethyl)benzyl)piperazine-1-carbonyl)-1H-pyrazol-3-yl)acetamide]",≤ 100 nM,≥ 75%,≤ 100 nM,–,1000 to 10000 nM,0 to 25%,–
"CC(=O)Nc1ccn(C(=O)N2CCN(Cc3ccc(C(F)(F)F)cc3N3CCN4CCC[C@@H]4C3)CC2)n1 [Example 268, (R)-N-(1-(4-(2-(hexahydropyrrolo[1,2-a]pyrazin-2(1H)-yl)-4-(trifluoromethyl)benzyl)piperazine-1-carbonyl)-1H-pyrazol-3-yl)acetamide]",≤ 100 nM,≥ 75%,≤ 100 nM,–,1000 to 10000 nM,0 to 25%,–
"CC(=O)NC1CCN(c2cc(C(F)(F)F)ccc2CN2CCN(C(=O)n3ccc(NS(C)(=O)=O)n3)CC2)CC1 [Example 269, N-(1-(2-((4-(3-(methylsulfonamido)-1H-pyrazole-1-carbonyl)piperazin-1-yl)methyl)-5-(trifluoromethyl)phenyl)piperidin-4-yl)acetamide]",≤ 100 nM,≥ 75%,≤ 100 nM,–,1000 to 10000 nM,0 to 25%,–
"CC(C)(O)C1CCN(c2cc(C(F)(F)F)ccc2CN2CCN(C(=O)n3ccc(NS(C)(=O)=O)n3)CC2)CC1 [Example 270, N-(1-(4-(2-(4-(2-hydroxypropan-2-yl)piperidin-1-yl)-4-(trifluoromethyl)benzyl)piperazine-1-carbonyl)-1H-pyrazol-3-yl) methanesulfonamide]",≤ 100 nM,≥ 75%,≤ 100 nM,–,1000 to 10000 nM,0 to 25%,–
"CS(=O)(=O)Nc1ccn(C(=O)N2CCN(Cc3ccc(C(F)(F)F)c(N4CCC(F)CC4)c3)CC2)n1 [Example 271, N-(1-(4-(3-(4-fluoropiperidin-1-yl)-4-(trifluoromethyl)benzyl)piperazine-1-carbonyl)-1H-pyrazol-3-yl) methanesulfonamide]",–,≥ 75%,≤ 100 nM,–,–,0 to 25%,–
"CC(=O)Nc1ccn(C(=O)N2CCN(Cc3ccc(C(F)(F)F)cc3C3CCN(CC(=O)O)CC3)CC2)n1 [Example 285, 2-(4-(2-((4-(3-acetamido-1H-pyrazole-1-carbonyl)piperazin-1-yl)methyl)-5-(trifluoromethyl)phenyl)piperidin-1-yl)acetic acid]",–,≥ 75%,≤ 100 nM,–,–,0 to 25%,–
"CS(=O)(=O)Nc1ccn(C(=O)N2CCN(Cc3ccc(C(F)(F)F)c(N4CCN5CCC[C@H]5C4)c3)CC2)n1 [Example 287, (S)-N-(1-(4-(3-(hexahydropyrrolo[1,2-a]pyrazin-2(1H)-yl)-4-(trifluoromethyl)benzyl)piperazine-1-carbonyl)-1H-pyrazol-3-yl) methanesulfonamide]",–,≥ 75%,≤ 100 nM,–,–,0 to 25%,–
"CS(=O)(=O)Nc1ccn(C(=O)N2CCN(Cc3ccc(C(F)(F)F)c(N4CCC(O)CC4)c3)CC2)n1 [Example 289, N-(1-(4-(3-(4-hydroxypiperidin-1-yl)-4-(trifluoromethyl)benzyl)piperazine-1-carbonyl)-1H-pyrazol-3-yl) methanesulfonamide]",–,≥ 75%,≤ 100 nM,–,–,0 to 25%,–
"CS(=O)(=O)Nc1ccn(C(=O)N2CCN(Cc3ccc(C(F)(F)F)c(N4CCC(C(N)=O)CC4)c3)CC2)n1 [Example 291, 1-(5-((4-(3-(methylsulfonamido)-1H-pyrazole-1-carbonyl)piperazin-1-yl)methyl)-2-(trifluoromethyl)phenyl)piperidine-4-carboxamide]",–,0 to 25%,–,–,–,0 to 25%,25%

# The next lines start with the values.
IC50 (MAGL [1]),inhibition at 1 µM (MAGL [1]),IC50 (MAGL [2]),inhibition at 5 mg/kg (MAGL [3]),IC50 (FAAH),inhibition at 1 µM (FAAH),"inhibition at 1 µM (MAGL [2]; at 1 μM, read-out: MAGL human % inh at 1 μM)",SMILES
≤ 100 nM,≥ 75%,≤ 100 nM,0 to 25%,1000 to 10000 nM,0 to 25%,–,"CC(=O)Nc1ccn(C(=O)N2CCN(Cc3ccc(Cl)cc3N3CCN(S(C)(=O)=O)CC3)CC2)n1 [Example 52, N-(1-(4-(4-chloro-2-(4-(methylsulfonyl)piperazin-1-yl)benzyl)piperazine-1-carbonyl)-1H-pyrazol-3-yl)acetamide]"
≤ 100 nM,≥ 75%,≤ 100 nM,≥ 75%,1000 to 10000 nM,0 to 25%,–,"CC(=O)Nc1ccn(C(=O)N2CCC3(CCCN3Cc3ccc(Cl)c(C)c3)CC2)n1 [Example 94, N-(1-(1-(4-chloro-3-methylbenzyl)-1,8-diazaspiro[4.5]decane-8-carbonyl)-1H-pyrazol-3-yl)acetamide]"
≤ 100 nM,≥ 75%,≤ 100 nM,≥ 75%,1000 to 10000 nM,0 to 25%,–,"CC(=O)Nc1ccn(C(=O)N2CCC3(CCCN3Cc3ccc(C)c(Cl)c3)CC2)n1 [Example 96, N-(1-(1-(3-chloro-4-methylbenzyl)-1,8-diazaspiro[4.5]decane-8-carbonyl)-1H-pyrazol-3-yl)acetamide]"
–,≥ 75%,≤ 100 nM,0 to 25%,–,0 to 25%,–,"CC(=O)Nc1ccn(C(=O)N2CCC3(CCCN3Cc3ccc(Cl)c(C4CC4)c3)CC2)n1 [Example 111, N-(1-(1-(4-chloro-3-cyclopropylbenzyl)-1,8-diazaspiro[4.5]decane-8-carbonyl)-1H-pyrazol-3-yl)acetamide]"
–,≥ 75%,≤ 100 nM,–,–,0 to 25%,–,"CS(=O)(=O)Nc1ccn(C(=O)N2CCN(Cc3ccc(Cl)c(N4CC[C@H](O)C4)c3)CC2)n1 [Example 292, (S)-N-(1-(4-(4-chloro-3-(3-hydroxypyrrolidin-1-yl)benzyl)piperazine-1-carbonyl)-1H-pyrazol-3-yl) methanesulfonamide]"
–,≥ 75%,≤ 100 nM,–,–,0 to 25%,–,"CS(=O)(=O)Nc1ccn(C(=O)N2CCN(Cc3ccc(Cl)c(N4CC[C@@H](O)C4)c3)CC2)n1 [Example 293, (R)-N-(1-(4-(4-chloro-3-(3-hydroxypyrrolidin-1-yl)benzyl)piperazine-1-carbonyl)-1H-pyrazol-3-yl) methanesulfonamide]"
